Data taken from ChEMBL document CHEMBL1201862, “PubChem BioAssay data set” (2004).
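Values below derive from 48-hour exposures of cells grown in 96-well plates, with endpoints linearly interpolated between the two concentrations bracketing the appropriate inhibition level. GI50: concentration for 50% inhibition of growth.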 Active and inactive are the calls of the source. Rule as the data show it: active = GI50 up to about 1.1 µM and inactive = higher.

Columns and labels:
Assay in all cases: DTP human tumour cell line panel, 48 h
[1] = system: M14
[2] = system: HOP-62
[3] = system: RPMI-8226
[4] = system: HT-29
[5] = system: SF-539
[6] = system: Malme-3M
[7] = system: SR
[8] = system: SF-268
[9] = system: MDA-N
[10] = system: SF-295
[11] = system: IGROV-1
[12] = system: CCRF-CEM
[13] = system: Hs-578T
[14] = system: NCI-H23
[15] = system: T47D
[16] = system: COLO 205
[17] = system: EKVX
[18] = system: HCT-15
[19] = system: OVCAR-5
[20] = system: SW-620
[21] = system: U-251
[22] = system: NCI-H522
[23] = system: DU-145
[24] = system: MDA-MB-435
[25] = system: MOLT-4
[26] = system: SK-OV-3
[27] = system: CAKI-1
[28] = system: PC-3
[29] = system: K562
[30] = system: A498
[31] = system: OVCAR-8
[32] = system: 786-0
[33] = system: NCI-H460
[34] = system: ACHN
[35] = system: HOP-92
[36] = system: BT-549
[37] = system: HL-60
[38] = system: LOX IMVI
[39] = system: TK-10
[40] = system: UACC-257
[41] = system: RXF 393
[42] = system: NCI/ADR-RES
[43] = system: OVCAR-3
[44] = system: HCT-116
[45] = system: MCF7
[46] = system: SK-MEL-2
[47] = system: SNB-19
[48] = system: UO-31
[49] = system: SNB-75
[50] = system: OVCAR-4
[51] = system: SK-MEL-5
[52] = system: A549
[53] = system: UACC-62
[54] = system: MDA-MB-231
[55] = system: SN12C
[56] = system: NCI-H226
[57] = system: SK-MEL-28
[58] = system: KM12

With `C/C(=N\NC(=O)c1ccncc1)c1ccccc1Cl` the GI50 [1] was > 100 µM (inactive), the GI50 [2] was > 100 µM (inactive) and the GI50 [3] was 79.6 µM (inactive). For the same compound, the GI50 [4] was > 100 µM (inactive), the GI50 [5] was > 100 µM (inactive) and the GI50 [6] was > 100 µM (inactive). For the same compound, the GI50 [7] was > 100 µM (inactive), the GI50 [8] was > 100 µM (inactive) and the GI50 [9] was > 100 µM (inactive). The GI50 [10] was > 100 µM (inactive), the GI50 [11] was > 100 µM (inactive) and the GI50 [12] was > 100 µM (inactive). The GI50 [13] was > 100 µM (inactive), the GI50 [14] was > 100 µM (inactive) and the GI50 [15] was > 100 µM (inactive). The GI50 [16] was > 100 µM (inactive), the GI50 [17] was > 100 µM (inactive) and the GI50 [18] was > 100 µM. The GI50 [19] was > 100 µM (inactive), the GI50 [20] was > 100 µM (inactive) and the GI50 [21] was > 100 µM (inactive). The GI50 [22] was > 100 µM (inactive), the GI50 [23] was > 100 µM (inactive) and the GI50 [24] was > 100 µM (inactive). The GI50 [25] was > 100 µM (inactive), the GI50 [26] was > 100 µM (inactive) and the GI50 [27] was > 100 µM (inactive). For the same compound, the GI50 [28] was > 100 µM (inactive), the GI50 [29] was > 100 µM (inactive) and the GI50 [30] was > 100 µM (inactive). For the same compound, the GI50 [31] was > 100 µM (inactive), the GI50 [32] was > 100 µM (inactive) and the GI50 [33] was > 100 µM (inactive). The GI50 [34] was > 100 µM (inactive), the GI50 [35] was > 100 µM (inactive) and the GI50 [36] was > 100 µM (inactive). For the same compound, the GI50 [37] was > 100 µM (inactive), the GI50 [38] was > 100 µM (inactive) and the GI50 [39] was > 100 µM (inactive). For the same compound, the GI50 [40] was > 100 µM (inactive), the GI50 [41] was > 100 µM (inactive) and the GI50 [42] was > 100 µM (inactive). For the same compound, the GI50 [43] was > 100 µM (inactive), the GI50 [44] was > 100 µM (inactive) and the GI50 [45] was > 100 µM (inactive). For the same compound, the GI50 [46] was > 100 µM (inactive), the GI50 [47] was > 100 µM (inactive) and the GI50 [48] was > 100 µM (inactive). For the same compound, the GI50 [49] was > 100 µM (inactive), the GI50 [50] was > 100 µM (inactive) and the GI50 [51] was > 100 µM (inactive). For the same compound, the GI50 [52] was > 100 µM (inactive), the GI50 [53] was > 100 µM (inactive) and the GI50 [54] was > 100 µM (inactive). The GI50 [55] was > 100 µM (inactive), the GI50 [56] was > 100 µM (inactive) and the GI50 [57] was > 100 µM (inactive). The GI50 [58] was > 100 µM (inactive).
